Measurements published in publication PMC10983791 (ACS chemical biology, 2023).
Entries after “also recorded” stand apart in the source; their conditions may differ. Each block holds one compound with its values, some of them ahead of it.

Key:
Assay type in all cases: biochemical
GNMT [1] = molecular target: T1, GNMT (Homo sapiens, UniProt Q14749); experiment: KM determination by method of initial rates, GNMT; conditions: read-out: KM, substrate, SAM 100 μM, MTase-Glo readout
T1 sequence (Q14749 1-295): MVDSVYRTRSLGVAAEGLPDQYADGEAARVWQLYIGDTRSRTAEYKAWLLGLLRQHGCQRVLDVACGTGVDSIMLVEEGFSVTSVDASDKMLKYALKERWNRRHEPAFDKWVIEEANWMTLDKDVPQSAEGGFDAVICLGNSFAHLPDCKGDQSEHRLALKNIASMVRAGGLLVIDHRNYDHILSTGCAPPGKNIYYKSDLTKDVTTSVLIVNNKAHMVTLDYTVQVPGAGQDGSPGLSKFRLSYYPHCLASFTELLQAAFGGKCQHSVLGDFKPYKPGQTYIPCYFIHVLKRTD

HNMT [2] = molecular target: T2, HNMT (Homo sapiens, UniProt P50135); experiment: LC-MS orthogonal assay, HNMT; conditions: for response in MS assay: LC-MS dose response
T2 sequence (P50135 whole entry): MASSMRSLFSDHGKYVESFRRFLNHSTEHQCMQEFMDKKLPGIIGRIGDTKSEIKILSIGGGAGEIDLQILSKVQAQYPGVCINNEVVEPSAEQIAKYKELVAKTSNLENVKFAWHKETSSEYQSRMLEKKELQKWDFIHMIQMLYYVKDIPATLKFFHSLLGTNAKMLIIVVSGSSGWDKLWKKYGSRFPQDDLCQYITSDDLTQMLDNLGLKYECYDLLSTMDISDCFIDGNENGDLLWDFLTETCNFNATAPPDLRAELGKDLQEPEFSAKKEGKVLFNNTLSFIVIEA

HNMT [3] = molecular target: T2, HNMT; experiment: MTase-Glo HNMT inhibition assay; conditions: for HNMT activity and specificity in SAR analysis: SAR expansion of diazepine chemotype; for potency loss: relative to the best analogs with pyridine nitrogen; for activity in HTS and follow-up: MTase-Glo, top dose 40 μM
NNMT [4] = molecular target: T3, NNMT (Homo sapiens, UniProt P40261); experiment: LC-MS orthogonal assay, NNMT
T3 sequence (P40261 1-264): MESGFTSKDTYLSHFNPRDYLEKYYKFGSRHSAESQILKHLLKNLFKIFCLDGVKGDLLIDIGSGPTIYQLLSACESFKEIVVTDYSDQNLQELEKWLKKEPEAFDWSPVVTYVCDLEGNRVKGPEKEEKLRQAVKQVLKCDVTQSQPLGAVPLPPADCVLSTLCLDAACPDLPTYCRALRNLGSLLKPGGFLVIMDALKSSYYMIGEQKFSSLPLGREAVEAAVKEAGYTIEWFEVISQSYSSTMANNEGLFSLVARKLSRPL

COMT [5] = molecular target: T4, COMT (Homo sapiens, UniProt P21964); experiment: LC-MS orthogonal assay, COMT
T4 sequence (P21964 1-271): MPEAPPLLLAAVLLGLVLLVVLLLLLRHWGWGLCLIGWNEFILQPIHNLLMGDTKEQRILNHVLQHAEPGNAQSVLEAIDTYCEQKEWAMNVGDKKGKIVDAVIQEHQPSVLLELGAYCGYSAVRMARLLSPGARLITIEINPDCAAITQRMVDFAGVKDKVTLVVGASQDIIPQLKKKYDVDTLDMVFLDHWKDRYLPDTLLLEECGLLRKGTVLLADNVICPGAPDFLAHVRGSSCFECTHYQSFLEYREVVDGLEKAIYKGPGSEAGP

GNMT [6] = molecular target: T1, GNMT; experiment: LC-MS orthogonal assay, GNMT
PNMT [7] = molecular target: T5, PNMT (Homo sapiens, UniProt P11086); experiment: LC-MS orthogonal assay, PNMT
T5 sequence (P11086 1-282): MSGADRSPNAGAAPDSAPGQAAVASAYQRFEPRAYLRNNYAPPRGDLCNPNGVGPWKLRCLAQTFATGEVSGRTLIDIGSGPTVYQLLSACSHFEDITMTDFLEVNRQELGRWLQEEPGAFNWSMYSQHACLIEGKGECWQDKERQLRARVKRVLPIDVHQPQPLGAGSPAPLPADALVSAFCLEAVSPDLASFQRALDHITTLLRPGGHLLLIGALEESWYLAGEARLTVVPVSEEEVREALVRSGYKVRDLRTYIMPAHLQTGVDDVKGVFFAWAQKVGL

PNMT [8] = molecular target: T5, PNMT; experiment: MTase-Glo PNMT inhibition assay; conditions: for activity in HTS and follow-up: MTase-Glo, top dose 40 μM
COMT [9] = molecular target: T4, COMT; experiment: MTase-Glo COMT inhibition assay; conditions: for activity in HTS and follow-up: MTase-Glo, top dose 40 μM
GAMT = GAMT (Homo sapiens, UniProt Q14353); experiment: MTase-Glo GAMT inhibition assay; conditions: for activity in HTS and follow-up: MTase-Glo, top dose 40 μM
NNMT [10] = molecular target: T3, NNMT; experiment: MTase-Glo NNMT inhibition assay; conditions: for activity in HTS and follow-up: MTase-Glo, top dose 40 μM
[11] = tested on: MTase-Glo coupled reporter assay; experiment: MTase-Glo counter-assay; conditions: 1 μM SAH in place of enzyme; for result in counter-assay replicates: two counter-assay replicates
GNMT [12] = molecular target: T1, GNMT; experiment: MTase-Glo GNMT inhibition assay; conditions: for activity in HTS and follow-up: MTase-Glo, top dose 40 μM
[13] = 11-point dose response, up to 50 μM

SMILES: NCC(=O)O [Glycine]
Km (GNMT [1]): > 500 µM

SMILES: c1ccc(Nc2cc3c(cn2)CN(Cc2c[nH]c4ccccc24)CCN3)cc1 [NCGC00411050]
potency loss (HNMT [3]): at least 10 fold

SMILES: c1ccc(Nc2cc3c(cn2)CN(Cc2cc[nH]n2)CCN3)cc1 [NCGC00411115]
potency loss (HNMT [3]): at least 10 fold

SMILES: Fc1ccccc1CN1CCNc2cc(Nc3cccnc3)ncc2C1 [NCGC00411168]
HNMT activity and specificity in SAR analysis (HNMT [3]; 11-point dose response): showed best activity

SMILES: Cc1cc(-c2cc3c(cn2)CN(Cc2cccs2)CCN3)ccn1 [NCGC00411196]
potency loss (HNMT [3]): at least 10 fold

SMILES: Oc1ccccc1CN1CCNc2cc(Nc3ccccc3)ncc2C1 [NCGC00411199]
potency loss (HNMT [3]): at least 10 fold

SMILES: COc1ccc(C(=O)Nc2cnn(-c3ncncc3N3CCC(C)CC3)c2)cc1 [NCGC00519772]
activity in HTS and follow-up (PNMT [8]): showed activity against all of the SMMTases tested | activity in HTS and follow-up (COMT [9]): showed activity against all of the SMMTases tested | activity in HTS and follow-up (GAMT): showed activity against all of the SMMTases tested | response in MS assay (HNMT [2]): did not inhibit any SMMTase | activity in HTS and follow-up (HNMT [3]): showed activity against all of the SMMTases tested | response in MS assay (NNMT [4]): did not inhibit any SMMTase | activity in HTS and follow-up (NNMT [10]): showed activity against all of the SMMTases tested | response in MS assay (COMT [5]): did not inhibit any SMMTase | result in counter-assay replicates [11]: conflicting results | response in MS assay (GNMT [6]): did not inhibit any SMMTase | activity in HTS and follow-up (GNMT [12]): showed activity against all of the SMMTases tested | response in MS assay (PNMT [7]): did not inhibit any SMMTase

SMILES: Cc1ccc(C(=O)Nc2cnn(-c3ncncc3N3CCC(C)CC3)c2)s1 [NCGC00519779]
activity in HTS and follow-up (PNMT [8]): showed activity against all of the SMMTases tested | activity in HTS and follow-up (COMT [9]): showed activity against all of the SMMTases tested | activity in HTS and follow-up (GAMT): showed activity against all of the SMMTases tested | response in MS assay (HNMT [2]): did not inhibit any SMMTase | activity in HTS and follow-up (HNMT [3]): showed activity against all of the SMMTases tested | response in MS assay (NNMT [4]): did not inhibit any SMMTase | activity in HTS and follow-up (NNMT [10]): showed activity against all of the SMMTases tested | response in MS assay (COMT [5]): did not inhibit any SMMTase | result in counter-assay replicates [11]: conflicting results | response in MS assay (GNMT [6]): did not inhibit any SMMTase | activity in HTS and follow-up (GNMT [12]): showed activity against all of the SMMTases tested | response in MS assay (PNMT [7]): did not inhibit any SMMTase

SMILES: Nc1ncnc2c1ncn2[C@@H]1O[C@H](C[C@@H](N)CC[C@H](N)C(=O)O)[C@@H](O)[C@H]1O [sinefungin, reference compound]
inhibition by positive control (PNMT [8]; [13]): inhibitable | inhibition by positive control (COMT [9]; [13]): inhibitable | inhibition by positive control (GAMT; [13]): inhibitable | inhibition by positive control (HNMT [3]; [13]): inhibitable | inhibition by positive control (NNMT [10]; [13]): inhibitable | inhibition of counter-assay by positive control [11]: not inhibited | inhibition by positive control (GNMT [12]; [13]): All MTases except GNMT were inhibitable

Now from value to compound, other results behind:

IC50 (HNMT [2]; read-out: IC50, MS assay, LC-MS readout of SAH, n=3): 0.67 µM | IC50 (HNMT [3]; read-out: IC50, MTase Glo assay): 2.45 µM | response in MS assay (NNMT [4]): No response | response in MS assay (COMT [5]): No response | response in MS assay (GNMT [6]): No response | response in MS assay (PNMT [7]): No response
SMILES: c1cncc(Nc2cc3c(cn2)CN(Cc2ccsc2)CCN3)c1 [NCGC00411044]
HNMT activity and specificity in SAR analysis (HNMT [3]; 11-point dose response): most active HNMT-selective compounds; also recorded: showed best activity

HNMT activity and specificity in SAR analysis (HNMT [3]; 11-point dose response): potency loss
SMILES: c1cncc(Nc2cc3c(cn2)CN(CC2CCOC2)CCN3)c1 (centres unmarked) [NCGC00411147]

HNMT activity and specificity in SAR analysis (HNMT [3]; 11-point dose response): reduce activity
SMILES: Cn1cc(CN2CCNc3cc(Nc4cccnc4)ncc3C2)cn1 [NCGC00411154]

HNMT activity and specificity in SAR analysis (HNMT [3]; 11-point dose response): reduced specificity
SMILES: c1cncc(Nc2cc3c(cn2)CN(Cc2c[nH]c4ccccc24)CCN3)c1 [NCGC00411220]
